We go through seven compounds from ChEMBL document CHEMBL4152309, “N-phenylsulfonyl-3,5-bis(arylidene)-4-piperidone derivatives as activation NF-κB inhibitors in hepatic carcinoma cell lines” (Eur J Med Chem, 2018).

Data set [1] can be described thus: Cytotoxicity against mouse RAW264.7 cells assessed as cell viability at 10 uM after 24 hrs by MTT assay relative to control. Type of data set: cell-based. As to conditions: read-out: Activity.
For the next data set, the system named is L02. As to the kind of experiment: Cytotoxicity against human LO2 cells assessed as reduction in cell viability after 24 hrs by MTT assay. Type of data set: cell-based. As to conditions: L02, 24 h.
Data set [2] has as its system SMMC-7721. As to the kind of experiment: Cytotoxicity against human SMMC7721 cells assessed as reduction in cell viability after 24 hrs by MTT assay. The data set is classed as functional, cell-based. The following applies: for IC50: SMMC-7721, 24 h.
Data set [3] deals with HepG2. Kind of data set: Cytotoxicity against human HepG2 cells assessed as reduction in cell viability after 24 hrs by MTT assay. As to conditions: for IC50: HepG2, 24 h. Type of data set: functional, cell-based.
The subject of data set [4] is RAW264.7. As to the kind of experiment: Anti-inflammatory activity in mouse RAW264.7 cells assessed as inhibition of LPS-induced IL-6 secretion at 10 uM pretreated for 2 hrs followed by LPS stimulation and measured after 22 hrs by ELISA. Type of data set: functional, cell-based.
Data set [5] in a line: Cytotoxicity against human HHL5 cells assessed as reduction in cell viability after 24 hrs by MTT assay. The data set is classed as cell-based. As to conditions: HHL-5, 24 h.
The subject of data set [6] is QGY-7703. Kind of data set: Cytotoxicity against human QGY7703 cells assessed as reduction in cell viability after 24 hrs by MTT assay. Type of data set: functional, cell-based. The following applies: for IC50: QGY-7703, 24 h.
In data set [7] the test system is RAW264.7. As to the kind of experiment: Anti-inflammatory activity in mouse RAW264.7 cells assessed as inhibition of LPS-induced IL-6 secretion at 30 uM pretreated for 2 hrs followed by LPS stimulation and measured after 22 hrs by ELISA. The data set is classed as functional, cell-based.
For data set [8], the system named is RAW264.7. Kind of data set: Anti-inflammatory activity in mouse RAW264.7 cells assessed as inhibition of LPS-induced TNFalpha secretion at 30 uM pretreated for 2 hrs followed by LPS stimulation and measured after 22 hrs by ELISA. The data set is classed as functional, cell-based.
Data set [9] concerns RAW264.7. Kind of data set: Anti-inflammatory activity in mouse RAW264.7 cells assessed as inhibition of LPS-induced TNFalpha secretion at 10 uM pretreated for 2 hrs followed by LPS stimulation and measured after 22 hrs by ELISA. The data set is classed as functional, cell-based.
Data set [10] has as its target Transcription factor p65 (Homo sapiens) (UniProt Q04206). Kind of data set: Inhibition of TNFalpha-stimulated NFkappaB p65 nuclear translocation in human HepG2 cells at 5 uM pretreated for 2 hrs followed by LPS-stimulation and measured after 15 mins by DAPI staining based microscopic analysis. Type of data set: cell-based.
The test system of data set [11] is HepG2. As to the kind of experiment: Induction of apoptosis in human HepG2 cells assessed as increase in early apoptotic cells after 24 hrs by Annexin-V-FITC/propidium iodide staining based flow cytometry. The data set is classed as functional, cell-based.
For data set [12], the system named is HepG2. As to the kind of experiment: Induction of apoptosis in human HepG2 cells assessed as decrease in Bcl2 expression after 24 hrs by Western blot analysis. Type of data set: functional, cell-based.
The subject of data set [13] is QGY-7703. As to the kind of experiment: Induction of apoptosis in human QGY7703 cells assessed as increase in late apoptotic cells after 24 hrs by Annexin-V-FITC/propidium iodide staining based flow cytometry. The data set is classed as functional, cell-based.
Data set [14] deals with RAW264.7. Kind of data set: Inhibition of LPS-stimulated NFkappaB activation in mouse RAW264.7 cells assessed as reduction in p65 phosphorylation at 1 to 10 uM pretreated for 2 hrs followed by LPS-stimulation and measured after 15 mins by Western blot method. The data set is classed as cell-based.
The test system of data set [15] is HepG2. Kind of data set: Inhibition of TNFalpha-stimulated NFkappaB activation in human HepG2 cells assessed as reduction in p65 phosphorylation pretreated for 2 hrs followed by LPS-stimulation and measured after 15 mins by Western blot method. The data set is classed as cell-based.
In data set [16] the test system is QGY-7703. Kind of data set: Induction of apoptosis in human QGY7703 cells assessed as increase in early apoptotic cells after 24 hrs by Annexin-V-FITC/propidium iodide staining based flow cytometry. Type of data set: functional, cell-based.
Data set [17] concerns HepG2. Kind of data set: Induction of apoptosis in human HepG2 cells assessed as increase in late apoptotic cells after 24 hrs by Annexin-V-FITC/propidium iodide staining based flow cytometry. The data set is classed as functional, cell-based.
Data set [18] concerns HepG2. Kind of data set: Induction of apoptosis in human HepG2 cells assessed as increase in cleaved caspase 3 expression after 24 hrs by Western blot analysis. Type of data set: functional, cell-based.
Data set [19] relates to RAW264.7. As to the kind of experiment: Inhibition of LPS-stimulated NFkappaB activation in mouse RAW264.7 cells assessed as reduction in IkappaB phosphorylation at 1 to 10 uM pretreated for 2 hrs followed by LPS-stimulation and measured after 15 mins by Western blot method. Type of data set: cell-based.
In data set [20] the test system is SMMC-7721. As to the kind of experiment: Induction of apoptosis in human SMMC7721 cells assessed as increase in late apoptotic cells after 24 hrs by Annexin-V-FITC/propidium iodide staining based flow cytometry. The data set is classed as functional, cell-based.
For data set [21], the system named is HepG2. As to the kind of experiment: Induction of apoptosis in human HepG2 cells assessed as increase in Bax expression after 24 hrs by Western blot analysis. The data set is classed as functional, cell-based.
Data set [22] concerns the target Transcription factor p65 (Mus musculus) (UniProt Q04207). Kind of data set: Inhibition of LPS-stimulated NFkappaB p65 nuclear translocation in mouse RAW264.7 cells at 5 uM pretreated for 2 hrs followed by LPS-stimulation and measured after 15 mins by DAPI staining based microscopic analysis. The data set is classed as cell-based.
Data set [23] concerns HepG2. As to the kind of experiment: Inhibition of TNFalpha-stimulated NFkappaB activation in human HepG2 cells assessed as reduction in IkappaB phosphorylation pretreated for 2 hrs followed by LPS-stimulation and measured after 15 mins by Western blot method. The data set is classed as cell-based.
In data set [24] the test system is SMMC-7721. Kind of data set: Induction of apoptosis in human SMMC7721 cells assessed as increase in early apoptotic cells after 24 hrs by Annexin-V-FITC/propidium iodide staining based flow cytometry. Type of data set: functional, cell-based.

Molecules are shown by their SMILES. The source made the active and inactive calls. The rule behind the calls is not given here.

Sequence of Transcription factor p65 (Mus musculus) (Q04207 whole entry): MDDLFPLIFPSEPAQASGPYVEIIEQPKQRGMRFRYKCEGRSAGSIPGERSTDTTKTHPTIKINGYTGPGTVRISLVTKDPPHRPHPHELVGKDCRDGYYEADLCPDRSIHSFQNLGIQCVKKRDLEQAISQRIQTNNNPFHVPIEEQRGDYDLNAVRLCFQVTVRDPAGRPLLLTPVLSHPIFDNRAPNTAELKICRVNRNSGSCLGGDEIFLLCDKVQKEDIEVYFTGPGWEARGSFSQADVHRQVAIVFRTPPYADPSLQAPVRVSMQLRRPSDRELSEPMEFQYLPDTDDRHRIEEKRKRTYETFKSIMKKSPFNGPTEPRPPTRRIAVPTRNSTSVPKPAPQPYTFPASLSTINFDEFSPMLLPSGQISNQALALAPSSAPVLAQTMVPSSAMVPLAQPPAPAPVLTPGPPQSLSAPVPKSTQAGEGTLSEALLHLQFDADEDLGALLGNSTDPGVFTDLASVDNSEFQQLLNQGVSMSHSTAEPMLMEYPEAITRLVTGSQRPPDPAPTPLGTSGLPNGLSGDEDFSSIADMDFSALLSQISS
Sequence of Transcription factor p65 (Homo sapiens) (Q04206 whole entry): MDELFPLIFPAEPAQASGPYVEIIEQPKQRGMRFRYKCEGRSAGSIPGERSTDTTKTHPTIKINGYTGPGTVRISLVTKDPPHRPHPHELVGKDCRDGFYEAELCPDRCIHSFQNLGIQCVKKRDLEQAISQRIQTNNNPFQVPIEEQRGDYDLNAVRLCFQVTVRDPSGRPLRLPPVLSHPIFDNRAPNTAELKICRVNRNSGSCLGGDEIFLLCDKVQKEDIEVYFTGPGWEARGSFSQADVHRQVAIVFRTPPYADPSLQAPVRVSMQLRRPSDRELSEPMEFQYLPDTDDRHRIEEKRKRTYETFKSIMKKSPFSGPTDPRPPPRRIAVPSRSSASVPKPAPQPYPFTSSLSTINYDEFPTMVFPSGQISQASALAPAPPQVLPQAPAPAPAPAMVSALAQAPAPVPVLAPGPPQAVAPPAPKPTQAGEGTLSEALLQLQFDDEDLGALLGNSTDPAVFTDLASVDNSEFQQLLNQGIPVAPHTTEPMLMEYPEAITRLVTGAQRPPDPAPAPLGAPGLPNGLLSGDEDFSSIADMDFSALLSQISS

In the case of `COc1cc(/C=C2\CN(S(=O)(=O)c3ccc(F)cc3)C/C(=C\c3ccccc3F)C2=O)cc(OC)c1OC`, the viability at 24 h, 10 µM in data set [1] was greater than 80%. Further, the IC50 with L02 turned out to be 17.6 µM; with SMMC-7721 [2], 6.34 µM; in the data set on HepG2 [3], 7.94 µM; in data set [5], 15.9 µM; with QGY-7703 [6], 13.3 µM. Further, in the data set on RAW264.7 [4], the inhibition entry was “Active”.
Regarding `S=C(S)N1CCCC1`, the inhibition result in the data set on RAW264.7 [7] and with RAW264.7 [8] was “Active” throughout.
With `COc1cc(/C=C2\CN(S(=O)(=O)c3ccc(F)cc3)C/C(=C\c3cc(OC)c(OC)c(OC)c3)C2=O)cc(OC)c1`, the viability at 24 h, 10 µM in [1] is greater than 80%. Besides, the IC50 was found to be 12.3 µM with L02; 5.42 µM with SMMC-7721 [2]; 3.89 µM with HepG2 [3]; 11.3 µM in [5]; 5.2 µM in the data set with QGY-7703 [6]. The inhibition result in the data set on RAW264.7 [9] was “Active”.
Consider `N#Cc1ccc(/C=C2\CN(S(=O)(=O)c3ccc(F)cc3)C/C(=C\c3ccc(C#N)cc3)C2=O)cc1`, for which, in data set [1], the viability at 24 h, 10 µM was greater than 80%. In addition, the IC50 was 18.9 µM in the data set on L02; 20.1 µM in the data set with SMMC-7721 [2]; 11.5 µM in the data set with HepG2 [3]; 19.2 µM in data set [5]; 11.3 µM in the data set on QGY-7703 [6]. In addition, in the data set with RAW264.7 [9], the inhibition entry was “Active”.
For the compound `CC(=O)Nc1ccc(S(=O)(=O)N2C/C(=C\c3cccc([N+](=O)[O-])c3)C(=O)/C(=C/c3ccccc3F)C2)cc1`, in data set [1], the viability at 24 h, 10 µM was greater than 80%. Besides, the IC50 in the data set with L02 was found to be 18.4 µM; in the data set with SMMC-7721 [2], 10.2 µM; in the data set with HepG2 [3] it was 8.8 µM; in data set [5], 20 µM; with QGY-7703 [6] it was 7.85 µM. The inhibition entry with RAW264.7 [4] was “Active”.
For `N#Cc1ccc(/C=C2\CN(S(=O)(=O)c3ccc(F)cc3)C/C(=C\c3ccccc3F)C2=O)cc1`, the viability at 24 h, 10 µM in data set [1] is greater than 80%. Also, the IC50 in the data set on L02 was determined as 21.9 µM; in the data set on SMMC-7721 [2] it was 10.2 µM; with HepG2 [3] it was 8.18 µM; in data set [5] it was 19 µM; with QGY-7703 [6] it was 20.1 µM. Also, in the data set with RAW264.7 [9], the inhibition result is “Active”.
Take `COc1cc(/C=C2\CN(S(=O)(=O)c3ccc(NC(C)=O)cc3)C/C(=C\c3ccc(C#N)cc3)C2=O)cc(OC)c1OC`: the viability at 24 h, 10 µM in [1] is greater than 80%. Moreover, the inhibition entry (in data set [10]; with RAW264.7 [14]; in the data set on RAW264.7 [4]; in the data set with RAW264.7 [19]; in the data set with RAW264.7 [9]; in data set [22]) was “Active” each time. Further, the IC50 was 13.6 µM with L02; 1.73 µM in the data set on SMMC-7721 [2]; 2.89 µM in the data set with HepG2 [3]; 13.6 µM in data set [5]; 1.89 µM in the data set with QGY-7703 [6]. Besides, the Activity result in the data set on HepG2 [11], in the data set on HepG2 [12], in the data set on QGY-7703 [13], with QGY-7703 [16], in the data set on SMMC-7721 [2] and in the data set on HepG2 [3] was “Dose-dependent effect” each time. The Activity result with HepG2 [17], in the data set on HepG2 [18], in the data set with SMMC-7721 [20], in the data set on HepG2 [21], in the data set with SMMC-7721 [24] and with QGY-7703 [6] was “Dose-dependent effect” in each case. For the same compound, the inhibition result in the data set on HepG2 [15] and in the data set with HepG2 [23] was “Dose-dependent effect” each time.
